How the values were obtained:
[1] = system: purified recombinant iPLA2β; assay: Assay of iPLA2β inhibition by BEL (radiolabeled phospholipid substrate); assay type: biochemical; conditions: FIG. 4A
Method: Recombinant iPLA2 Enzymes—Recombinant iPLA2β was expressed and purified from Sf9 cells as previously described (35).
Assay of iPLA2β and iPLA2γ Inhibition by BEL—Purified recombinant iPLA2β or Sf9 cell membranes containing recombinant iPLA2γ were incubated with (R) BEL, (S) BEL, racemic BEL, or ethanol vehicle for 3 mm at 22° C. in the presence of 100 mM Tris-HCl (pH 7.0) and 4 mM EGTA (for iPLA2β) or 100 mM Tris-acetate (pH 8.0) and 4 mM EGTA (for iPLA2γ). The concentration of BEL used for each test ranged from 0 to 16 μM. L-α-1-palmitoyl-2-[1^14C]-arachidonyl-phosphatidylcholine (5 μM final concentration) or L-α-1-palmitoyl-2-[1-^14C]-oleoyl-phosphatidylcholine (5 μM final concentration) in ethanol was then added to each sample and incubated at 37° C. for 2 min. Reactions were terminated by extraction of radiolabeled products into butanol, and reactants and products were separated by thin layer chromatography using Whatman LK6D 60 Å Silica Gel plates with petroleum ether/ethyl ether/acetic acid (70:30:1) as the mobile phase. Regions corresponding to the migration of a fatty acid standard visualized by iodine staining were scraped into vials and radioactivity was quantified by scintillation spectrometry.
Panel A—Purified recombinant iPLA2β (1 μg/ml) in 100 mM Tris-HCl, pH 7.3 containing 1 mM EGTA was preincubated at 22° C. for 3 mm in the presence of the indicated concentrations of (R)-, (S)-, or rac-BEL or ethanol vehicle alone (1% final concentration). Radiolabeled substrate (L-α-1-palmitoyl-2-[1-^14C]-arachidonyl-phosphatidylcholine, 5 μM final concentration) was then added to each reaction and incubated at 37° C. for 2 min. Reactions were terminated by extraction of remaining substrate and products into butanol, separation by TLC, and quantification of released radiolabeled fatty acid by scintillation spectrometry as described in Experimental Procedures.

[2] = system: PAP-1 in human amnionic WISH cells; conditions: ≈25 μM; (34); cited from earlier work
[3] = system: iPLA2 vs. cPLA2 and SPLA2 family members; conditions: (31, 32); cited from earlier work
[4] = system: A-10 cells; conditions: cited from earlier work
[5] = system: phosphatidate phosphohydrolase in A-10 cells; assay: Total phosphatidate phosphohydrolase activity in homogenates of intact A-10 cells pretreated with BEL; assay type: cell-based, rat; conditions: intact A-10 cells exposed to up to 100 μM; FIG. 6B
Method: Measurement of Cytosolic and Membrane-bound Phosphatidate Phosphohydrolase Activities—A-10 cells were grown to confluency, washed twice in ice-cold phosphate-buffered saline, and harvested in lysis buffer (50 mM Tris-HCl, pH 7.4 containing 0.25 M sucrose and 0.2 mM DTT). After brief sonication utilizing a Vibra-Cell VC4O sonicator (5×1 s pulses at 30% power), the lysed cell suspension was centrifuged at 100,000×g for 1 hr to separate cytosolic and membrane fractions. In some tests, A-10 cells were washed and pretreated with BEL or ethanol vehicle (as described above for tests examining [^3H]-AA liberation) before isolation of cell homogenates. […] Reactions were terminated with 900 μL of 5% acetic acid and extracted into chloroform by the method of Bligh and Dyer (38) prior to separating dipaliitoyl glycerol by TLC utilizing chloroform: methanol: water (65:35:2) as the mobile phase prior to quantification by scintillation spectrometry.
A-10 cells plated on 100 mm dishes were washed 2× in ice-cold PBS and harvested in lysis buffer (50 mM Tris-HCl, pH 7.4 containing 0.25 M sucrose and 0.2 mM DTT). […] In panel B, intact A-10 cells were washed and pretreated with BEL or ethanol vehicle (as described in FIG. 5) before isolation of the cell homogenate and quantification of phosphatidate phosphohydrolase activity as described above. […]

[6] = target: T1, α-chymotrypsin (Bos taurus, UniProt P00766); assay: Inhibition of α-chymotrypsin by BEL; assay type: biochemical; conditions: 2 μM chymotrypsin, up to 5-fold molar excess of inhibitor, 5 min 22° C., then 1000-fold dilution with 100 mM hydrazine; FIG. 3
T1 construct: purchased Sigma
Method: Inhibition of α-Chymotrypsin by BEL—The kinetics of α-chymotrrpsin inactivation by (R)-, (S)-, and rac-BEL were performed similar to methods previously described (36). The concentration of α-chymotrypsin (MW=25,000) was determined using an A^1%=20 (1 cm pathlength) at 280 nm (37). Briefly, one milliliter of α-chymotrypsin (2 μM) was incubated with up to a 5-fold molar excess of (R)-,(S)-, or rac-BEL dissolved in acetonitrile or vehicle alone for 5 mm at 22° C. in 0.1 M sodium phosphate buffer, pH 7.2. […] Following incubation at 22° C. for 1 hr, chymotrypsin activity in each diluted sample was measured utilizing a SPECTRAmax GeminiXS microplate spectrofluorometer with N-succinyl-Ala-Ala-Pro-Phe-7-amidomethylcoumarin (50 μM) as substrate for 1 mm at 25° C. Excitation and emission wavelengths were 380 nm and 460 nm, respectively.
Chymotrypsin (2 μM) in 0.1 M sodium phosphate buffer, pH 7.2 was incubated with the indicated concentrations of racemic, (R)-, or (S)-BEL for 5 mm. This solution was then diluted 1000-fold in 0.1 M sodium phosphate buffer, pH 7.2 containing 100 mM hydrazine and incubated for 1 hr at 22° C. Chymotrypsin proteolytic activity was measured spectrofluorometrically using N-succinyl-Ala-Ala-Pro-Phe-7-amido-4-methylcoumarin (50 μM) as substrate.

SMILES | inhibitory potency on iPLA2β relative to the enantiomers [1] | inhibition of PAP-1 in human amnionic WISH cells [2] | selectivity iPLA2 vs. cPLA2 and SPLA2 family members [3] | release of IP2 or IP3 in A-10 cells [4] | total phosphatidate phosphohydrolase activity in comparison to ethanol-treated controls [5] | inhibition of chymotrypsin [6]
O=C1OC(=CBr)CCC1c1cccc2ccccc12 (racemic) [rac-BEL, Racemic (E)-6-(bromomethylene)-3-(1-naphthalenyl)-2H-tetrahydropyran-2-one] | intermediate of that of (R)-BEL and (S)-BEL | effectively inhibit | 1000 fold | does not inhibit | did not inhibit | 
O=C1O/C(=C/Br)CC[C@@H]1c1cccc2ccccc12 [(R)-BEL, (R)(E)-6-(bromomethylene)-3-(1-naphthalenyl)-2H-tetrahydropyran-2-one] |  |  |  |  |  | stoichiometrically and irreversibly inhibited
